The source of these data is patent US6841577B2, “Pesticidal activity of plant essential oils and their constituents” (Ecosmart Technologies, Inc., priority 1999, dated 2005).

Broadly, the mortality is the share of the test organisms that died.

Assay [1] concerns octopamine receptor sites. The experiment in a line: 3H-OA binding to ventral nerve cord / synaptosomal membrane protein. More on the design: species or system American cockroach (Periplaneta americana). To be noted: for classification with respect to octopamine receptor sites (OAR): based on the binding data of Tables 1-3. The method, then:
Different concentrations of unlabeled octopamine (OA) (20, 30, 40, 50, 60, 100 ng) were tested on the binding activity as a positive control. Test chemicals were dissolved in acetone before the assay. Different concentrations of the test chemicals were added directly to the protein preparation from ventral nerve cord. The same amount of solvent (1 μl 0.1%) were added to the control samples. All assays with test chemicals were run in the presence and absence of 50 ng OA. All chemicals were added to the protein extract 20 min prior the addition of radio labeled ^3H-OA(100,000 cpm/sample). After 30 min at 24° C. of the addition of ^3H-OA, the reaction was stopped by the addition of ice-cold Tris buffer, and the samples were filtered through GF/C membrane using water vacuum. After two washes each with 5 ml Tris buffer, the membrane was removed, air dried and the radioactivity was counted in 4 ml liquid scintillation solution. The specific binding was calculated as the difference between the values in the presence and absence of unlabeled OA. All data are calculated as the mean±standard deviation of 5 assays.
Additional tests were conducted on radio labeled octopamine using other purified naturally occurring materials as given in Tables 2 and 3.

A further assay deals with American cockroach. The experiment in a line: Cross walk jar test on pre-treated surface. Format: in vivo. To be noted: for pesticidal activity against cockroaches, in words: in vivo. The procedure:
In the test, a known amount of the test material was dissolved in a known volume of acetone and applied to small jars and all inner bottom surfaces were covered. The bottom surface of each jar is approximately 250 cm^2. One hour after the acetone had completely evaporated, five American cockroaches were introduced to each jar. Control jars were treated exactly as above but with the known amount of acetone only.
The results of the “cross walk” jar tests are in Table 8 in which the “4-blend” was dispersed as an aerosol and a dust in the jar.
In this test, the acetone solution of the test material was placed in the jar and the roach inserted into the jar after the acetone had evaporated.
Mortality was measured 24 hours after exposure.
The “4-blend” and the individual constituents of the “4-blend” were tested using 10 cockroaches for each “cross walk” treatment. In addition, pyrethrins were tested separately and mixed with the various components.
A concentration of 100 mg/jar was used for each individual alone. In the co-treatment experiment without pyrethrins, 20 mg/jar for each chemical was used. In the cotreatment experiment with pyrethrins, 20 mg/jar for the naturally occurring plant material was used. Pyrethrins was used at 2 mg/jar. […] It was noted above that the mortality is dependent upon concentration. […] Some synergism is found between pyrethrins and either α-terpineol or benzyl alcohol.

The subject of the next assay is larvae. The assay is described as follows: Feeding deterrence of carvacrol. To be noted: on doubling the concentration. Type of assay: in vivo. The text has this: FIG. 6 is a graph of the feeding deterrence of carvacrol vs. larvae.
The 5-blend can be considered as a relatively broad spectrum pesticide. […] The effect of concentration of the pesticide is shown in […] where a doubling in the concentration of carvacrol produces a 3-4 fold increase in deterrence of feeding.

Assay [2] has as its system 2nd instar green peach aphid nymphs. The experiment in a line: Cabbage leaf disc bioassay. Format: in vivo. The method, then:
A bioassay similar to that for S. litura larvae was used for additional larvae. Cabbage leaf discs were dipped in emulsified aqueous solutions, diluted 1:200 in water, on which 2nd instar green peach aphid nymphs were placed. For each treatment there was 10 aphids per disc with 5 replicates; each experiment was replicated in time (successive days) from 3-5 times. After 24 hours, aphids were reported as being (1) on the leaf disc and feeding; (2) alive, but walking off the disc; or (3) dead. In the field, aphids which cease feeding and abandon a host plant are very unlikely to survive.

The test system of assay [3] is 3rd instar Asian armyworms (Spodoptera litura). The note with it: in vivo. The method, then:
Additional synergistic testing was conducted on 3rd instar Asian armyworms (Spodoptera litura). […] The number of replicates is given as “n”.

As to `Cc1ccc(C(C)C)cc1O` [Carvacol, Carvacrol], the “agonist/antagonist note to 3H-OA binding” value in assay [1] (1000 ng/ml) is listed as “agonist”. Also, the “dpm 3H-OA/500 μg protein” value in assay [1] (1000 ng/ml, Table 2, solvent control 930 ± 89) came out at 2366 ± 149 dpm 3H-OA/500 μg protein. In addition, the “classification with respect to octopamine receptor sites (OAR)” value in assay [1] is on record as “OAR Agonists”. Also, in the assay on American cockroach (Periplaneta americana, 24 h), the mortality at 10 mg was determined as 0%, the mortality at 20 mg is 20%, the mortality at 40 mg was 50% and the mortality at 50 mg came out at 80%. For the same compound, the mortality at 100 mg with American cockroach (Periplaneta americana, 24 h) turned out to be 100%. Moreover, the “pesticidal activity against cockroaches, in words” value in the assay on American cockroach is “high pesticidal activity”. In the assay on larvae, the “increase in deterrence of feeding” value is recorded as 3-4 fold.
`CCC(=O)OCCc1ccccc1` [Phenethyl propionate]: the “activity on green peach aphid nymphs, in words” value in assay [2] (1:200 dilution) is “essentially inactive”. In assay [2] (n = 250, Table 17, control 8.7), the “Percentage of aphids Dead” value came to 13.3%. For the same compound, the “Percentage of aphids Walking (off disc)” value in assay [2] (n = 250, Table 17, control 15.3) stood at 25.3%. Besides, the “Percentage of aphids Feeding” value in assay [2] (n = 250, Table 17, control 76.0) turned out to be 62.0%. In assay [1], the “activity/binding at octopamine receptor sites, in words” value was “antagonists which are most strongly bound” and the “classification with respect to octopamine receptor sites (OAR)” value is listed as “extremely high OAR antagonists”. Also, the “agonist/antagonist note to 3H-OA binding” value in assay [1] (500 ng/ml) is reported as “antagonist”. Besides, the “cpm 3H-OA/500 μg protein” value in assay [1] (500 ng/ml, Table 3, solvent control 1385 ± 101) is listed as 0173 ± 022 cpm 3H-OA/500 μg protein. In the assay with American cockroach (Periplaneta americana, 24 h), the mortality at 10 mg worked out at 30%, the mortality at 20 mg turned out to be 40%, the mortality at 30 mg is 60% and the mortality at 40 mg amounted to 90%. Besides, in the assay with American cockroach (Periplaneta americana, 24 h), the mortality at 50 mg was 100% and the mortality at 100 mg amounted to 100%. The “pesticidal activity against cockroaches, in words” value with American cockroach is reported as “high pesticidal activity”. The “activity on Asian armyworms, in words” value in assay [3] is recorded as “relatively low activity”.
